# Source: US12590123B2, “Compounds and methods for treating cancer, viral infections, and allergic conditions” (Washington University, priority 2019, dated 2026)
# Target: T1, activated hepsin (Homo sapiens, UniProt P05981)
# T1 construct: purchased R&D Systems 4776-SE-010
# Test: Fluorescent kinetic enzyme assay of hepsin activity (Boc-QAR-AMC)
# Assay type: biochemical
# Details: Table 3; average of three experiments; read-out: Hepsin IC50
# T1 sequence (P05981 163-417 limits assumed): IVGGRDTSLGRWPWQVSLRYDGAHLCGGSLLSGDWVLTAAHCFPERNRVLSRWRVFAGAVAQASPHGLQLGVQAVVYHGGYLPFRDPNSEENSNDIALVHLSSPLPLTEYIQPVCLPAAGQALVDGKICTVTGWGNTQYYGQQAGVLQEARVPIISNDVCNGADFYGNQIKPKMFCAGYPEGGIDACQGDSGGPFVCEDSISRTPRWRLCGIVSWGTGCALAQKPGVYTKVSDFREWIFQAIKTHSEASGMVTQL
# T1 sequence (P05981 1-162 partner limits assumed): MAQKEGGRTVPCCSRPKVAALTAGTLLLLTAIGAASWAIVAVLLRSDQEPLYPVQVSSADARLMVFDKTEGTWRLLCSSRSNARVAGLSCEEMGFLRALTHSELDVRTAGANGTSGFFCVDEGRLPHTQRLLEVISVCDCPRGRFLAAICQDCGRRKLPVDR
row,SMILES,IC50 [nM]
1,"CC(=O)N1CCC(OC(=O)N[C@@H](CC(C)C)C(=O)N[C@@H](CCCNC(=N)N)C(=O)c2nc3ccccc3s2)CC1 [Compound 8e, 1-acetylpiperidin-4-yl ((S)-1-(((S)-1-(benzo[d]thiazol-2-yl)-5-guanidino-1-oxopentan-2-yl)amino)-4-methyl-1-oxopentan-2-yl)carbamate]",20
2,"CC(C)C[C@H](NC(=O)OC1CCN(S(=O)(=O)c2ccccc2)CC1)C(=O)N[C@@H](CCCNC(=N)N)C(=O)c1nc2ccccc2s1 [Compound 8f, 1-(phenylsulfonyl)piperidin-4-yl ((S)-1-(((S)-1-(benzo[d]thiazol-2-yl)-5-guanidino-1-oxopentan-2-yl)amino)-4-methyl-1-oxopentan-2-yl)carbamate]",20
3,"CC(C)C[C@H](NC(=O)OC1CCN(S(=O)(=O)c2ccccc2F)CC1)C(=O)N[C@@H](CCCNC(=N)N)C(=O)c1nc2ccccc2s1 [Compound 8g, 1-((2-fluorophenyl)sulfonyl)piperidin-4-yl ((S)-1-(((S)-1-(benzo[d]thiazol-2-yl)-5-guanidino-1-oxopentan-2-yl)amino)-4-methyl-1-oxopentan-2-yl)carbamate]",70
4,"CCS(=O)(=O)N1CCC(OC(=O)N[C@@H](CC(C)C)C(=O)N[C@@H](CCCNC(=N)N)C(=O)c2nc3ccccc3s2)CC1 [Compound 8h, 1-(ethylsulfonyl)piperidin-4-yl ((S)-1-(((S)-1-(benzo[d]thiazol-2-yl)-5-guanidino-1-oxopentan-2-yl)amino)-4-methyl-1-oxopentan-2-yl)carbamate]",10
5,"CC(C)C[C@H](NC(=O)OC1CCN(S(=O)(=O)c2ccc(Cl)cc2)CC1)C(=O)N[C@@H](CCCNC(=N)N)C(=O)c1nc2ccccc2s1 [Compound 8i, 1-((4-chlorophenyl)sulfonyl)piperidin-4-yl ((S)-1-(((S)-1-(benzo[d]thiazol-2-yl)-5-guanidino-1-oxopentan-2-yl)amino)-4-methyl-1-oxopentan-2-yl)carbamate]",60
6,"CC(C)C[C@H](NC(=O)OC1CCN(S(=O)(=O)c2cccc(F)c2)CC1)C(=O)N[C@@H](CCCNC(=N)N)C(=O)c1nc2ccccc2s1 [Compound 8j, 1-((3-fluorophenyl)sulfonyl)piperidin-4-yl ((S)-1-(((S)-1-(benzo[d]thiazol-2-yl)-5-guanidino-1-oxopentan-2-yl)amino)-4-methyl-1-oxopentan-2-yl)carbamate]",70
7,"CC(C)C[C@H](NC(=O)OC1CCN(S(=O)(=O)c2ccc([N+](=O)[O-])cc2[N+](=O)[O-])CC1)C(=O)N[C@@H](CCCNC(=N)N)C(=O)c1nc2ccccc2s1 [Compound 8k, 1-((2,4-dinitrophenyl)sulfonyl)piperidin-4-yl ((S)-1-(((S)-1-(benzo[d]thiazol-2-yl)-5-guanidino-1-oxopentan-2-yl)amino)-4-methyl-1-oxopentan-2-yl)carbamate]",110
8,"COc1ccc(Cl)cc1S(=O)(=O)N1CCC(OC(=O)N[C@@H](CC(C)C)C(=O)N[C@@H](CCCNC(=N)N)C(=O)c2nc3ccccc3s2)CC1 [Compound 8l, 1-((5-chloro-2-methoxyphenyl)sulfonyl)piperidin-4-yl ((S)-1-(((S)-1-(benzo[d]thiazol-2-yl)-5-guanidino-1-oxopentan-2-yl)amino)-4-methyl-1-oxopentan-2-yl)carbamate]",60
9,"Cc1cc(C)c(S(=O)(=O)N2CCC(OC(=O)N[C@@H](CC(C)C)C(=O)N[C@@H](CCCNC(=N)N)C(=O)c3nc4ccccc4s3)CC2)c(C)c1 [Compound 8m, 1-(mesitylsulfonyl)piperidin-4-yl ((S)-1-(((S)-1-(benzo[d]thiazol-2-yl)-5-guanidino-1-oxopentan-2-yl)amino)-4-methyl-1-oxopentan-2-yl)carbamate]",110
